Test results as given in ChEMBL document CHEMBL1149714 (2007).
≈ marks a conversion by molar mass, not a printed value.

What was measured:
Format in all cases: functional
Moraxella catarrhalis = assay: Antibacterial activity against Moraxella catarrhalis ATCC 43617 after 20 hrs by agar dilution method; conditions: ATCC 43617, 20 h
Pseudomonas aeruginosa [1] = assay: Antibacterial activity against AmpC hyperproducing Pseudomonas aeruginosa SR24-12 after 20 hrs by agar dilution method
Pseudomonas aeruginosa [2] = assay: Antibacterial activity against Pseudomonas aeruginosa SR24 after 20 hrs by agar dilution method
Pseudomonas aeruginosa [3] = assay: Antibacterial activity against Pseudomonas aeruginosa SR-5393 after 20 hrs by agar dilution method
Enterobacter cloacae [4] = assay: Antibacterial activity against AmpC producing Enterobacter cloacae SR-4321 after 20 hrs by agar dilution method
Haemophilus influenzae [5] = assay: Antibacterial activity against beta-lactamase negative ampicillin resistant Haemophilus influenzae SR-11435 after 20 hrs by agar dilution method
Pseudomonas aeruginosa [6] = assay: Antibacterial activity against Imipenem resistant Pseudomonas aeruginosa SR-6554 after 20 hrs by agar dilution method
Staphylococcus aureus = assay: Antibacterial activity against […] Staphylococcus aureus SMITH after 20 hrs by agar dilution method
Escherichia coli [7] = assay: Antibacterial activity against Toho 2 (ESBL) producing Escherichia coli SR-21003 after 20 hrs by agar dilution method
Streptococcus pneumoniae = assay: Antibacterial activity against penicillin resistant Streptococcus pneumoniae SR-16675 after 20 hrs by agar dilution method
Escherichia coli [8] = assay: Antibacterial activity against Escherichia coli NIHJJC2 after 20 hrs by agar dilution method
Enterobacter cloacae [9] = assay: Antibacterial activity against Enterobacter cloacae ATCC 13047 after 20 hrs by agar dilution method; conditions: ATCC 13047, 20 h
Haemophilus influenzae [10] = assay: Antibacterial activity against Haemophilus influenzae ATCC 49766 after 20 hrs by agar dilution method; conditions: ATCC 49766, 20 h
Pseudomonas aeruginosa [11] = assay: Antibacterial activity against CAZ resistant Pseudomonas aeruginosa SR24-12 infected in mouse after 7 days; conditions: 168 h
Pseudomonas aeruginosa [12] = assay: Antibacterial activity against CAZ susceptible Pseudomonas aeruginosa SR24 infected in mouse after 7 days; conditions: 168 h

Row | Structure (SMILES) | MIC (Moraxella catarrhalis) | MIC (Pseudomonas aeruginosa [1]) | MIC (Pseudomonas aeruginosa [2]) | MIC (Pseudomonas aeruginosa [3]) | MIC (Enterobacter cloacae [4]) | MIC (Haemophilus influenzae [5]) | MIC (Pseudomonas aeruginosa [6]) | MIC (Staphylococcus aureus) | MIC (Escherichia coli [7]) | MIC (Streptococcus pneumoniae) | MIC (Escherichia coli [8]) | MIC (Enterobacter cloacae [9]) | MIC (Haemophilus influenzae [10]) | ED50 (Pseudomonas aeruginosa [11]) | ED50 (Pseudomonas aeruginosa [12])
1 | CNCCCn1ccc2c1ccc[n+]2CC1=C(C(=O)[O-])N2C(=O)[C@@H](NC(=O)/C(=N\OC(C)(C)C(=O)O)c3nc(N)sc3Cl)[C@H]2SC1 | 0.008 µg/mL (≈ 0.0116 µM) | 8 µg/mL (≈ 11.6 µM) | 2 µg/mL (≈ 2.89 µM) | 4 µg/mL (≈ 5.79 µM) | 4 µg/mL (≈ 5.79 µM) | 0.063 µg/mL (≈ 0.0911 µM) | 16 µg/mL (≈ 23.1 µM) | 2 µg/mL (≈ 2.89 µM) | 8 µg/mL (≈ 11.6 µM) | 4 µg/mL (≈ 5.79 µM) | 1 µg/mL (≈ 1.45 µM) | 2 µg/mL (≈ 2.89 µM) | 0.032 µg/mL (≈ 0.0463 µM) | – | –
2 | CNCCCn1ccc2c1ccc[n+]2CC1=C(C(=O)[O-])N2C(=O)[C@@H](NC(=O)/C(=N\O[C@H](C)C(=O)O)c3nc(N)sc3Cl)[C@H]2SC1 | 0.032 µg/mL (≈ 0.0473 µM) | 4 µg/mL (≈ 5.91 µM) | 1 µg/mL (≈ 1.48 µM) | 4 µg/mL (≈ 5.91 µM) | 4 µg/mL (≈ 5.91 µM) | 0.25 µg/mL (≈ 0.369 µM) | 16 µg/mL (≈ 23.6 µM) | 2 µg/mL (≈ 2.95 µM) | 4 µg/mL (≈ 5.91 µM) | 4 µg/mL (≈ 5.91 µM) | 0.5 µg/mL (≈ 0.738 µM) | 1 µg/mL (≈ 1.48 µM) | 0.063 µg/mL (≈ 0.093 µM) | – | –
3 | CNCCCn1ccc2c1ccc[n+]2CC1=C(C(=O)[O-])N2C(=O)[C@@H](NC(=O)/C(=N\O[C@@H](C)C(=O)O)c3nc(N)sc3Cl)[C@H]2SC1 | 0.016 µg/mL (≈ 0.0236 µM) | 4 µg/mL (≈ 5.91 µM) | 1 µg/mL (≈ 1.48 µM) | 2 µg/mL (≈ 2.95 µM) | 2 µg/mL (≈ 2.95 µM) | 0.063 µg/mL (≈ 0.093 µM) | 8 µg/mL (≈ 11.8 µM) | 1 µg/mL (≈ 1.48 µM) | 4 µg/mL (≈ 5.91 µM) | 2 µg/mL (≈ 2.95 µM) | 0.25 µg/mL (≈ 0.369 µM) | 0.5 µg/mL (≈ 0.738 µM) | 0.032 µg/mL (≈ 0.0473 µM) | 5.32 mg/kg | 1.4 mg/kg
4 | CC[C@H](O/N=C(\C(=O)N[C@@H]1C(=O)N2C(C(=O)[O-])=C(C[n+]3cccc4c3ccn4CCCNC)CS[C@H]12)c1nc(N)sc1Cl)C(=O)O | 0.016 µg/mL (≈ 0.0231 µM) | 4 µg/mL (≈ 5.79 µM) | 1 µg/mL (≈ 1.45 µM) | 4 µg/mL (≈ 5.79 µM) | 4 µg/mL (≈ 5.79 µM) | 0.063 µg/mL (≈ 0.0911 µM) | 16 µg/mL (≈ 23.1 µM) | 1 µg/mL (≈ 1.45 µM) | 4 µg/mL (≈ 5.79 µM) | 4 µg/mL (≈ 5.79 µM) | 1 µg/mL (≈ 1.45 µM) | 1 µg/mL (≈ 1.45 µM) | 0.032 µg/mL (≈ 0.0463 µM) | – | –
5 | CNCCCn1ccc2c1ccc[n+]2CC1=C(C(=O)[O-])N2C(=O)[C@@H](NC(=O)/C(=N\OC(C)(C)C(=O)O)c3csc(N)n3)[C@H]2SC1 | – | 32 µg/mL (≈ 48.7 µM) | 1 µg/mL (≈ 1.52 µM) | 2 µg/mL (≈ 3.05 µM) | 16 µg/mL (≈ 24.4 µM) | – | 16 µg/mL (≈ 24.4 µM) | – | 2 µg/mL (≈ 3.05 µM) | – | 0.25 µg/mL (≈ 0.381 µM) | 1 µg/mL (≈ 1.52 µM) | – | – | –
6 | CNCCCn1ccc2c1ccc[n+]2CC1=C(C(=O)[O-])N2C(=O)[C@@H](NC(=O)/C(=N\OC3(C(=O)O)CC3)c3nc(N)sc3Cl)[C@H]2SC1 | 0.008 µg/mL (≈ 0.0116 µM) | 4 µg/mL (≈ 5.8 µM) | 1 µg/mL (≈ 1.45 µM) | 4 µg/mL (≈ 5.8 µM) | 2 µg/mL (≈ 2.9 µM) | 0.032 µg/mL (≈ 0.0464 µM) | 16 µg/mL (≈ 23.2 µM) | 1 µg/mL (≈ 1.45 µM) | 4 µg/mL (≈ 5.8 µM) | 4 µg/mL (≈ 5.8 µM) | 0.5 µg/mL (≈ 0.726 µM) | 0.5 µg/mL (≈ 0.726 µM) | 0.016 µg/mL (≈ 0.0232 µM) | – | –
7 | CNCCCn1ccc2c1ccc[n+]2CC1=C(C(=O)[O-])N2C(=O)[C@@H](NC(=O)/C(=N\OC3(C(=O)O)CCC3)c3nc(N)sc3Cl)[C@H]2SC1 | 0.016 µg/mL (≈ 0.0228 µM) | 4 µg/mL (≈ 5.69 µM) | 1 µg/mL (≈ 1.42 µM) | 4 µg/mL (≈ 5.69 µM) | 4 µg/mL (≈ 5.69 µM) | 0.063 µg/mL (≈ 0.0896 µM) | 16 µg/mL (≈ 22.8 µM) | 1 µg/mL (≈ 1.42 µM) | 4 µg/mL (≈ 5.69 µM) | 4 µg/mL (≈ 5.69 µM) | 1 µg/mL (≈ 1.42 µM) | 2 µg/mL (≈ 2.84 µM) | 0.032 µg/mL (≈ 0.0455 µM) | – | –
8 | CNCCCn1ccc2c1ccc[n+]2CC1=C(C(=O)[O-])N2C(=O)[C@@H](NC(=O)/C(=N\O[C@@H](C)C(=O)O)c3nsc(N)n3)[C@H]2SC1 | 0.5 µg/mL (≈ 0.777 µM) | 16 µg/mL (≈ 24.9 µM) | 0.5 µg/mL (≈ 0.777 µM) | 2 µg/mL (≈ 3.11 µM) | 8 µg/mL (≈ 12.4 µM) | 0.25 µg/mL (≈ 0.388 µM) | 4 µg/mL (≈ 6.21 µM) | 2 µg/mL (≈ 3.11 µM) | 8 µg/mL (≈ 12.4 µM) | 4 µg/mL (≈ 6.21 µM) | 0.031 µg/mL (≈ 0.0482 µM) | 0.25 µg/mL (≈ 0.388 µM) | 0.031 µg/mL (≈ 0.0482 µM) | – | –
9 | CNCCCn1ccc2c1ccc[n+]2CC1=C(C(=O)[O-])N2C(=O)[C@@H](NC(=O)/C(=N\O[C@@H](C)C(=O)O)c3nc(N)sc3C)[C@H]2SC1 | 0.5 µg/mL (≈ 0.761 µM) | 8 µg/mL (≈ 12.2 µM) | 1 µg/mL (≈ 1.52 µM) | 4 µg/mL (≈ 6.09 µM) | 16 µg/mL (≈ 24.4 µM) | 2 µg/mL (≈ 3.05 µM) | 64 µg/mL (≈ 97.5 µM) | 4 µg/mL (≈ 6.09 µM) | 32 µg/mL (≈ 48.7 µM) | 8 µg/mL (≈ 12.2 µM) | 2 µg/mL (≈ 3.05 µM) | 4 µg/mL (≈ 6.09 µM) | 0.125 µg/mL (≈ 0.19 µM) | – | –
10 | CC(C)(O/N=C(\C(=O)N[C@@H]1C(=O)N2C(C(=O)[O-])=C(C[n+]3ccccc3)CS[C@H]12)c1csc(N)n1)C(=O)O [CEFTAZIDIME] | 0.063 µg/mL (≈ 0.115 µM) | 64 µg/mL (≈ 117 µM) | 0.5 µg/mL (≈ 0.915 µM) | 2 µg/mL (≈ 3.66 µM) | 64 µg/mL (≈ 117 µM) | 0.125 µg/mL (≈ 0.229 µM) | 32 µg/mL (≈ 58.5 µM) | 8 µg/mL (≈ 14.6 µM) | 1 µg/mL (≈ 1.83 µM) | 8 µg/mL (≈ 14.6 µM) | 0.25 µg/mL (≈ 0.457 µM) | 8 µg/mL (≈ 14.6 µM) | 0.063 µg/mL (≈ 0.115 µM) | 127 mg/kg | 2.83 mg/kg
